Test results published in US11084976B2, “Method and process of use of binary compositions for acidizing subterranean formations” (Halliburton Energy Services, Inc., priority 2018, dated 2021).
Values after ≈ are worked out from the molar mass of the structure shown.

Key:
[1] = PMIDA added to base solubility test; format: physicochemical; settings: base added to PMIDA in solid form or high concentrated slurry
Description: During the testing, however, it was observed that adding the base to the PMIDA in its solid form, or in a high concentrated slurry, was unsuccessful.
The following procedure was followed to generate several samples. First, a quantity of a known base in water was prepared. Next, PMIDA was added to the solution at a rate slow enough to ensure that no boiling of the fluid occurred. As discussed above, it is believed that the addition of the PMIDA to the base may result in an exothermic reaction that may aid in additional solubilizing of PMIDA due to the increase in the fluid temperature. After complete addition and thorough mixing, the fluid was cooled, and the volume, weight, and pH were measured. Finally, the concentration and density of the samples were determined.

[2] = Solubility of PMIDA in water and HCl (saturation concentrations); format: physicochemical; settings: for solubility thermodynamic: water, thermodynamic from solid, H2O
Excerpt: In certain embodiments, the organic compound comprising a phosphonoalkyl moiety is at least partially solubilized in the organic or mineral acid. As used herein, the term “at least partially solubilized,” and grammatical variants thereof, with reference to the organic compound comprising a phosphonoalkyl moiety in the organic or mineral acid refers to dissolution of at least about 2% weight per volume (w/v) of the organic compound comprising a phosphonoalkyl moiety in the organic or mineral acid at room temperature. As used herein, the term “room temperature” refers to about 15° C. to about 25° C. The remaining excess organic compound comprising a phosphonoalkyl moiety may be suspended in the organic or mineral acid while it is undergoing dynamic fluid flow at room temperature. As temperatures increase (e.g., as the treatment fluid is introduced into a subterranean formation and encounters downhole temperatures), the solubility of the organic compound comprising a phosphonoalkyl moiety in the organic or mineral acid may increase. Indeed, the solubility of the organic compound comprising a phosphonoalkyl moiety increases as a function of acid concentration, and temperature.

O=C(O)CN(CC(=O)O)CP(=O)(O)O [PMIDA, N-(phosphonomethyl)iminodiacetic acid]
Solubility in the base mixture [1]: substantially insoluble
Solubility Average ([2]; Atm., 7.5% HCl, 200° F.): 10.00 w/v %
solubility thermodynamic ([2]; 37.8 °C, 200 psi, 100° F.): 18.3 mg/mL (≈ 80.6 mM)
solubility thermodynamic ([2]; 37.8 °C, Atm., 100° F.): 22.6 mg/mL (≈ 99.5 mM)
solubility thermodynamic ([2]; 65.6 °C, 200 psi, 150° F.): 28.7 mg/mL (≈ 126 mM)
solubility thermodynamic ([2]; 65.6 °C, Atm., 150° F.): 31.9 mg/mL (≈ 140 mM)
solubility thermodynamic ([2]; 93.3 °C, 200 psi, 200° F.): 51.1 mg/mL (≈ 225 mM)
solubility thermodynamic ([2]; 93.3 °C, Atm., 200° F.): 47.9 mg/mL (≈ 211 mM)
